Source: US20100298141A1, “SUBSTITUTED PYRIDINE N-OXIDE HERBICIDES” (E. I. DU PONT DE NEMOURS AND COMPANY, priority 2007, published 2010)

Experiments:
morningglory = assay: Test A pre-/postemergence greenhouse test; format: in vivo, Ipomoea spp.; settings: for Plant response rating, Morningglory: 0 to 100 scale where 0 is no effect and 100 is complete control; for Morningglory plant response rating: 0 to 100 scale
Procedure, shortened: (§1)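 Greenhouse herbicide screen, pre- and postemergence in parallel. Soil: loam plus sand. Formulation: non-phytotoxic solvent mix with surfactant. Postemergence stage: one to two leaves, 2–10 cm height. Evaluation: visual injury, compared with untreated controls, about 10 days after treatment.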

redroot pigweed = assay: Test A pre-/postemergence greenhouse test; format: in vivo, Amaranthus retroflexus; settings: for Plant response rating, Pigweed: 0 to 100 scale where 0 is no effect and 100 is complete control; for Pigweed plant response rating: 0 to 100 scale
Procedure, shortened: as §1

blackgrass = assay: Test C pre-/postemergence test; format: in vivo, Alopecurus myosuroides
Procedure, shortened: (§2)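 Compounds in a non-phytotoxic solvent with surfactant applied preemergence to seeded pots and, at the same time, postemergence to plants 2–18 cm tall (1- to 4-leaf stage). Paddy tests: pots flooded to 3 cm, compound applied into the water, depth held throughout.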

downy brome = assay: Test C pre-/postemergence test; format: in vivo, Bromus tectorum
Procedure, shortened: as §2

green foxtail = assay: Test C pre-/postemergence test; format: in vivo, Setaria viridis
Procedure, shortened: as §2

wild oat = assay: Test C pre-/postemergence test; format: in vivo, Avena fatua
Procedure, shortened: as §2

bermudagrass = assay: Test C pre-/postemergence test; format: in vivo, Cynodon dactylon
Procedure, shortened: as §2

cocklebur = assay: Test C pre-/postemergence test; format: in vivo, Xanthium strumarium
Procedure, shortened: as §2

woolly cupgrass = assay: Test C pre-/postemergence test; format: in vivo, Eriochloa villosa
Procedure, shortened: as §2

kochia = assay: Test C pre-/postemergence test; format: in vivo, Kochia scoparia
Procedure, shortened: as §2

lambsquarters = assay: Test C pre-/postemergence test; format: in vivo, Chenopodium album
Procedure, shortened: as §2

yellow nutsedge = assay: Test C pre-/postemergence test; format: in vivo, Cyperus esculentus
Procedure, shortened: as §2

soybean = assay: Test C pre-/postemergence test; format: in vivo, Glycine max
Procedure, shortened: as §2

rice = assay: Test C flooded paddy test; format: in vivo, Oryza sativa; settings: Flood
Procedure, shortened: (§3)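 Test compounds are applied straight into paddy water held 3 cm above the soil surface, with that flood maintained for the whole test. After 13 to 15 days in the greenhouse, each species is scored visually relative to controls.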

duck salad = assay: Test C flooded paddy test; format: in vivo, Heteranthera limosa; settings: Flood
Procedure, shortened: as §3

[1] = Postemergence, 500 g ai/ha, 0 is no effect, 100 is complete control
[2] = Preemergence, 125 g ai/ha, 0 no effect, 100 complete control
[3] = 62 g ai/ha, Preemergence, scale 0 to 100
[4] = 125 g ai/ha, preemergence, scale 0 (no effect) to 100 (complete control)
[5] = Preemergence, 31 g ai/ha, scale 0 to 100 (0 no effect, 100 complete control)
[6] = preemergence, 250 g ai/ha, scale 0 (no effect) to 100 (complete control)
[7] = 62 g ai/ha, Preemergence, scale 0 to 100 (0 no effect, 100 complete control)
[8] = 62 g ai/ha, scale 0 to 100 (0 no effect, 100 complete control)
[9] = 250 g ai/ha, scale 0 to 100, 0 no effect, 100 complete control, 13 to 15 days
[10] = Postemergence, 62 g ai/ha, scale 0 to 100, 0 no effect, 100 complete control
[11] = Postemergence, 125 g ai/ha, scale 0 to 100, 0 no effect, 100 complete control
[12] = Postemergence, 250 g ai/ha, scale 0 to 100, 0 no effect, 100 complete control

## Cn1nc(C(F)(F)F)c(CS(=O)(=O)c2ccc(Cl)c[n+]2[O-])c1OCC(F)(F)F [Compound 73]
morningglory; Postemergence, 125 g ai/ha
  Plant response rating, Morningglory: 0
morningglory; [1]
  Morningglory plant response rating: 20
morningglory; [2]
  Morningglory plant response rating: 20
morningglory; Preemergence, 500 g ai/ha
  Plant response rating, Morningglory: 40
Redroot pigweed; Postemergence, 125 g ai/ha
  Plant response rating, Pigweed: 10
Redroot pigweed; [1]
  Pigweed plant response rating: 60
Redroot pigweed; [2]
  Pigweed plant response rating: 90
Redroot pigweed; Preemergence, 500 g ai/ha
  Plant response rating, Pigweed: 100
blackgrass; [3]
  Blackgrass plant response rating: 98
blackgrass; [4]
  Blackgrass plant response rating: 100
blackgrass; [5]
  Plant response rating, Blackgrass: 98
blackgrass; [6]
  Blackgrass plant response rating: 100
Downy brome; [3]
  Bromegrass, Downy plant response rating: 60
Downy brome; [4]
  Bromegrass, Downy plant response rating: 60
Downy brome; [5]
  Plant response rating, Bromegrass, Downy: 0
Downy brome; [6]
  Bromegrass, Downy plant response rating: 100
Green foxtail; [3]
  Foxtail, Green plant response rating: 70
Green foxtail; [4]
  Foxtail, Green plant response rating: 100
Green foxtail; [5]
  Plant response rating, Foxtail, Green: 70
Wild oat; [3]
  Oat, Wild plant response rating: 40
Wild oat; [4]
  Oat, Wild plant response rating: 60
Wild oat; [5]
  Plant response rating, Oat, Wild: 40
Wild oat; [6]
  Oat, Wild plant response rating: 90
bermudagrass; [7]
  Bermudagrass plant response rating: 100
bermudagrass; [4]
  Bermudagrass plant response rating: 100
bermudagrass; [5]
  Plant response rating, Bermudagrass: 80
bermudagrass; [6]
  Bermudagrass plant response rating: 100
cocklebur; [3]
  Cocklebur plant response rating: 0
cocklebur; [4]
  Cocklebur plant response rating: 0
cocklebur; [5]
  Plant response rating, Cocklebur: 0
cocklebur; [6]
  Cocklebur plant response rating: 0
Woolly cupgrass; [3]
  Cupgrass, Woolly plant response rating: 80
Woolly cupgrass; [4]
  Cupgrass, Woolly plant response rating: 85
Woolly cupgrass; [5]
  Plant response rating, Cupgrass, Woolly: 60
Woolly cupgrass; [6]
  Cupgrass, Woolly plant response rating: 85
kochia; [3]
  Kochia plant response rating: 100
kochia; [4]
  Kochia plant response rating: 100
kochia; [5]
  Plant response rating, Kochia: 60
kochia; [6]
  Kochia plant response rating: 100
lambsquarters; [3]
  Lambsquarters plant response rating: 100
lambsquarters; [4]
  Lambsquarters plant response rating: 100
lambsquarters; [5]
  Plant response rating, Lambsquarters: 50
lambsquarters; [6]
  Lambsquarters plant response rating: 100
Yellow nutsedge; [3]
  Nutsedge, Yellow plant response rating: 0
Yellow nutsedge; [4]
  Nutsedge, Yellow plant response rating: 40
Yellow nutsedge; [5]
  Plant response rating, Nutsedge, Yellow: 0
Yellow nutsedge; [6]
  Nutsedge, Yellow plant response rating: 80
soybean; [3]
  Soybean plant response rating: 0
soybean; [5]
  Plant response rating, Soybean: 0
soybean; [6]
  Soybean plant response rating: 70
rice; [8]
  Plant response rating, Rice: 0
rice; [9]
  Plant response rating, Rice: 20
Duck salad; [8]
  Plant response rating, Ducksalad: 70
Duck salad; [9]
  Plant response rating, Ducksalad: 85

## Cn1nc(C(F)(F)F)c(C[S+]([O-])c2ccc(F)c[n+]2[O-])c1OCC(F)(F)F (stereo not drawn) [Compound 67]
morningglory; Postemergence, 125 g ai/ha
  Plant response rating, Morningglory: 70
morningglory; [1]
  Morningglory plant response rating: 100
morningglory; [2]
  Morningglory plant response rating: 70
morningglory; Preemergence, 500 g ai/ha
  Plant response rating, Morningglory: 100
Redroot pigweed; Postemergence, 125 g ai/ha
  Plant response rating, Pigweed: 80
Redroot pigweed; [1]
  Pigweed plant response rating: 100
Redroot pigweed; [2]
  Pigweed plant response rating: 100
Redroot pigweed; Preemergence, 500 g ai/ha
  Plant response rating, Pigweed: 100
blackgrass; [3]
  Blackgrass plant response rating: 100
blackgrass; [4]
  Blackgrass plant response rating: 100
blackgrass; Postemergence, 31 g ai/ha
  Plant response rating (0 to 100), Blackgrass: 30
blackgrass; [10]
  Plant response rating, Blackgrass: 80
blackgrass; [11]
  Plant response rating, Blackgrass: 90
blackgrass; [12]
  Plant response rating, Blackgrass: 90
blackgrass; [5]
  Plant response rating, Blackgrass: 90
blackgrass; [6]
  Blackgrass plant response rating: 100
Downy brome; [3]
  Bromegrass, Downy plant response rating: 100
Downy brome; [4]
  Bromegrass, Downy plant response rating: 100
Downy brome; Postemergence, 31 g ai/ha
  Plant response rating (0 to 100), Bromegrass, Downy: 0
Downy brome; [10]
  Plant response rating, Bromegrass, Downy: 10
Downy brome; [11]
  Plant response rating, Bromegrass, Downy: 40
Downy brome; [12]
  Plant response rating, Bromegrass, Downy: 60
Downy brome; [5]
  Plant response rating, Bromegrass, Downy: 100
Downy brome; [6]
  Bromegrass, Downy plant response rating: 100
Green foxtail; [3]
  Foxtail, Green plant response rating: 100
Green foxtail; [4]
  Foxtail, Green plant response rating: 100
Green foxtail; Postemergence, 31 g ai/ha
  Plant response rating (0 to 100), Foxtail, Green: 0
Green foxtail; [10]
  Plant response rating, Foxtail, Green: 45
Green foxtail; [11]
  Plant response rating, Foxtail, Green: 60
Green foxtail; [12]
  Plant response rating, Foxtail, Green: 90
Green foxtail; [5]
  Plant response rating, Foxtail, Green: 100
Green foxtail; [6]
  Foxtail, Green plant response rating: 100
Wild oat; [3]
  Oat, Wild plant response rating: 80
Wild oat; [4]
  Oat, Wild plant response rating: 98
Wild oat; Postemergence, 31 g ai/ha
  Plant response rating (0 to 100), Oat, Wild: 10
Wild oat; [10]
  Plant response rating, Oat, Wild: 20
Wild oat; [12]
  Plant response rating, Oat, Wild: 60
Wild oat; [5]
  Plant response rating, Oat, Wild: 80
Wild oat; [6]
  Oat, Wild plant response rating: 100
bermudagrass; [7]
  Bermudagrass plant response rating: 100
bermudagrass; [4]
  Bermudagrass plant response rating: 100
bermudagrass; Postemergence, 31 g ai/ha
  Plant response rating (0 to 100), Bermudagrass: 0
bermudagrass; [10]
  Plant response rating, Bermudagrass: 0
bermudagrass; [11]
  Plant response rating, Bermudagrass: 0
bermudagrass; [12]
  Plant response rating, Bermudagrass: 70
bermudagrass; [5]
  Plant response rating, Bermudagrass: 90
bermudagrass; [6]
  Bermudagrass plant response rating: 100
cocklebur; [4]
  Cocklebur plant response rating: 0
cocklebur; Postemergence, 31 g ai/ha
  Plant response rating (0 to 100), Cocklebur: 0
cocklebur; [10]
  Plant response rating, Cocklebur: 0
cocklebur; [11]
  Plant response rating, Cocklebur: 0
cocklebur; [12]
  Plant response rating, Cocklebur: 0
Woolly cupgrass; [3]
  Cupgrass, Woolly plant response rating: 80
Woolly cupgrass; [4]
  Cupgrass, Woolly plant response rating: 98
Woolly cupgrass; Postemergence, 31 g ai/ha
  Plant response rating (0 to 100), Cupgrass, Woolly: 0
Woolly cupgrass; [10]
  Plant response rating, Cupgrass, Woolly: 0
Woolly cupgrass; [11]
  Plant response rating, Cupgrass, Woolly: 30
Woolly cupgrass; [12]
  Plant response rating, Cupgrass, Woolly: 50
Woolly cupgrass; [5]
  Plant response rating, Cupgrass, Woolly: 70
Woolly cupgrass; [6]
  Cupgrass, Woolly plant response rating: 100
kochia; [3]
  Kochia plant response rating: 100
kochia; [4]
  Kochia plant response rating: 100
kochia; Postemergence, 31 g ai/ha
  Plant response rating (0 to 100), Kochia: 0
kochia; [10]
  Plant response rating, Kochia: 0
kochia; [11]
  Plant response rating, Kochia: 60
kochia; [12]
  Plant response rating, Kochia: 60
kochia; [5]
  Plant response rating, Kochia: 80
kochia; [6]
  Kochia plant response rating: 100
lambsquarters; Postemergence, 31 g ai/ha
  Plant response rating (0 to 100), Lambsquarters: 0
lambsquarters; [10]
  Plant response rating, Lambsquarters: 0
lambsquarters; [11]
  Plant response rating, Lambsquarters: 0
lambsquarters; [12]
  Plant response rating, Lambsquarters: 10
Yellow nutsedge; [3]
  Nutsedge, Yellow plant response rating: 40
Yellow nutsedge; [4]
  Nutsedge, Yellow plant response rating: 40
Yellow nutsedge; Postemergence, 31 g ai/ha
  Plant response rating (0 to 100), Nutsedge, Yellow: 0
Yellow nutsedge; [10]
  Plant response rating, Nutsedge, Yellow: 0
Yellow nutsedge; [11]
  Plant response rating, Nutsedge, Yellow: 0
Yellow nutsedge; [12]
  Plant response rating, Nutsedge, Yellow: 0
Yellow nutsedge; [5]
  Plant response rating, Nutsedge, Yellow: 0
Yellow nutsedge; [6]
  Nutsedge, Yellow plant response rating: 60
soybean; [3]
  Soybean plant response rating: 80
soybean; [4]
  Soybean plant response rating: 100
soybean; Postemergence, 31 g ai/ha
  Plant response rating (0 to 100), Soybean: 0
soybean; Postemergence, 62 g ai/ha
  Plant response rating (0 to 100), Soybean: 40
soybean; [11]
  Plant response rating, Soybean: 50
soybean; [12]
  Plant response rating, Soybean: 80
soybean; [5]
  Plant response rating, Soybean: 0
soybean; [6]
  Soybean plant response rating: 100
rice; [8]
  Plant response rating, Rice: 60
Duck salad; [8]
  Plant response rating, Ducksalad: 100
